Source: patent US11053244B1, “4-azaindole compounds” (BRISTOL-MYERS SQUIBB COMPANY, priority 2017, dated 2021)
Blank lines part the entries; values can stand above or below the molecule they belong to.

Columns and labels:
TLR7 = TLR7 (Mus musculus (Mouse), UniProt P58681); experiment: In vivo mouse TLR7 PD model (gardiquimod-induced plasma IL-6 and IFN-alpha); conditions: plasma 90 min after gardiquimod, vs vehicle
Protocol: In Vivo Mouse TLR7 PD Model:
Adult male C5-7BL/6 mice were used for the experiments. Mice (7 to 10 per group) were randomized into different treatment groups based on body weight. Mice from the respective treatment groups were administered orally with vehicle or test compound. Thirty min after the oral administration of vehicle or test compound, mice were challenged with intraperitoneal injection of gardiquimod for TLR7 PD model. Ninety minutes after gardiquimod injection, mice were bled under isoflurane anaesthesia and plasma IL-6 and IFN-alpha levels were estimated by using commercially available ELISA kit (BD Biosciences, PBL Life Sciences). At the end of experiment, mean cytokine data was plotted and one way ANOVA with Dunnett's test was performed to calculate the significance of test compound treated group vs. vehicle control group. Percent inhibition of cytokine induction was calculated for test compound treated group vs vehicle control group.

human TLR7 = human TLR7 (Homo sapiens (Human), UniProt Q9NYK1); experiment: TLR7 inhibition reporter assay (HEK-Blue cells, SEAP reporter, gardiquimod stimulation); format: cell-based
Protocol: (§1) HEK-Blue™-cells (Invivogen) overexpressing human TLR7, TLR8 or TLR9 receptors were used for screening inhibitors of these receptors using an inducible SEAP (secreted embryonic alkaline phosphatase) reporter gene under the control of the IFN-β minimal promoter fused to five NF-κB and AP-1-binding sites. Briefly, cells are seeded into Greiner 384 well plates (15000 cells per well for TLR7, 20,000 for TLR8 and 25,000 for TLR9) and then treated with test compounds in DMSO to yield a final dose response concentration range of 0.05 nM-50 μM. After a 30 minute compound pre-treatment at room temperature, the cells are then stimulated with a TLR7 ligand (gardiquimod at a final concentration of 7.5 μM), TLR8 ligand (R848 at a final concentration of 15.9 μM) or TLR9 ligand (ODN2006 at a final concentration of 5 nM) to activate NF-κB and AP-1 which induce the production of SEAP. After a 22 hour incubation at 37° C., 5% CO2, SEAP levels are determined with the addition of HEK-Blue™ Detection reagent (Invivogen), a cell culture medium that allows for detection of SEAP, according to manufacturer's specifications.

human TLR8 = human TLR8 (Homo sapiens (Human), UniProt Q9NR97); experiment: TLR8 inhibition reporter assay (HEK-Blue cells, SEAP reporter, R848 stimulation); conditions: read-out: TLR8 IC50
Protocol: TLR7/8/9 Inhibition Reporter Assays
as §1

human TLR9 = human TLR9 (Homo sapiens (Human), UniProt Q9NR96); experiment: TLR9 inhibition reporter assay (HEK-Blue cells, SEAP reporter, ODN2006 stimulation); conditions: read-out: TLR9 IC50
Protocol: TLR7/8/9 Inhibition Reporter Assays
as §1

[1] = oral dose 0.005 mg/kg 30 min before i.p. gardiquimod
[2] = oral dose 0.01 mg/kg 30 min before i.p. gardiquimod
[3] = oral dose 0.05 mg/kg 30 min before i.p. gardiquimod
[4] = oral dose 0.25 mg/kg 30 min before i.p. gardiquimod
[5] = oral dose 0.5 mg/kg 30 min before i.p. gardiquimod
[6] = oral dose 0.0015 mg/kg 30 min before i.p. gardiquimod
[7] = oral dose 0.003 mg/kg 30 min before i.p. gardiquimod
[8] = oral dose 0.015 mg/kg 30 min before i.p. gardiquimod
[9] = oral dose 0.075 mg/kg 30 min before i.p. gardiquimod
[10] = oral dose 0.15 mg/kg 30 min before i.p. gardiquimod
[11] = oral dose 0.006 mg/kg 30 min before i.p. gardiquimod
[12] = oral dose 0.03 mg/kg 30 min before i.p. gardiquimod
[13] = oral dose 0.3 mg/kg 30 min before i.p. gardiquimod

Chain of TLR7 (P58681 27-1050): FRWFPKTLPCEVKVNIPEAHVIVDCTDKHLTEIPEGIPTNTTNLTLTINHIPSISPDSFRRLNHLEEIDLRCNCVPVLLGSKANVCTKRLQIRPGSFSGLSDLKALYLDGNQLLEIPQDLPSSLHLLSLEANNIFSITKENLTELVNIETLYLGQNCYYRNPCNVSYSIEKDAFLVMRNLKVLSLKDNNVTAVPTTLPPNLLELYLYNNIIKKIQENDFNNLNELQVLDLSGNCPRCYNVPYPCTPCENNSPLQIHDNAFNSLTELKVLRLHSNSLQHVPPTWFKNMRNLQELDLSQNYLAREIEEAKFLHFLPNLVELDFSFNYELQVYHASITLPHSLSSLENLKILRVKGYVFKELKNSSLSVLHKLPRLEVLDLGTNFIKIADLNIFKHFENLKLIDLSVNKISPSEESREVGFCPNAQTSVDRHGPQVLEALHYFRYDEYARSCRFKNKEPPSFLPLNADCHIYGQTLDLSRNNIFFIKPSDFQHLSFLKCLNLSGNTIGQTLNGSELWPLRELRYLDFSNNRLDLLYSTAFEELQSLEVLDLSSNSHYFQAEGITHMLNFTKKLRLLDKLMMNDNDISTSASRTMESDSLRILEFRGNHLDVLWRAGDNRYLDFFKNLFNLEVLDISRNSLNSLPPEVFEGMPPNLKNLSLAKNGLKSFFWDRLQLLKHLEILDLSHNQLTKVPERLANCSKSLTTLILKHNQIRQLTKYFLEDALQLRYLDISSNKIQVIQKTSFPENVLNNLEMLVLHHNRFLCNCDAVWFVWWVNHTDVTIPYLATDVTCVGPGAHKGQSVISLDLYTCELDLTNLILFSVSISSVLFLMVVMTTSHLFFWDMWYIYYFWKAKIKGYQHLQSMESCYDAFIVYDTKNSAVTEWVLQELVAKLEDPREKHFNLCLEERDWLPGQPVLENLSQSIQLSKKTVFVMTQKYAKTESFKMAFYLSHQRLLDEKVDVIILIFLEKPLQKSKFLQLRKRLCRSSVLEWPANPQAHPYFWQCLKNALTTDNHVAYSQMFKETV
Chain of human TLR9 (Q9NR96 26-1032): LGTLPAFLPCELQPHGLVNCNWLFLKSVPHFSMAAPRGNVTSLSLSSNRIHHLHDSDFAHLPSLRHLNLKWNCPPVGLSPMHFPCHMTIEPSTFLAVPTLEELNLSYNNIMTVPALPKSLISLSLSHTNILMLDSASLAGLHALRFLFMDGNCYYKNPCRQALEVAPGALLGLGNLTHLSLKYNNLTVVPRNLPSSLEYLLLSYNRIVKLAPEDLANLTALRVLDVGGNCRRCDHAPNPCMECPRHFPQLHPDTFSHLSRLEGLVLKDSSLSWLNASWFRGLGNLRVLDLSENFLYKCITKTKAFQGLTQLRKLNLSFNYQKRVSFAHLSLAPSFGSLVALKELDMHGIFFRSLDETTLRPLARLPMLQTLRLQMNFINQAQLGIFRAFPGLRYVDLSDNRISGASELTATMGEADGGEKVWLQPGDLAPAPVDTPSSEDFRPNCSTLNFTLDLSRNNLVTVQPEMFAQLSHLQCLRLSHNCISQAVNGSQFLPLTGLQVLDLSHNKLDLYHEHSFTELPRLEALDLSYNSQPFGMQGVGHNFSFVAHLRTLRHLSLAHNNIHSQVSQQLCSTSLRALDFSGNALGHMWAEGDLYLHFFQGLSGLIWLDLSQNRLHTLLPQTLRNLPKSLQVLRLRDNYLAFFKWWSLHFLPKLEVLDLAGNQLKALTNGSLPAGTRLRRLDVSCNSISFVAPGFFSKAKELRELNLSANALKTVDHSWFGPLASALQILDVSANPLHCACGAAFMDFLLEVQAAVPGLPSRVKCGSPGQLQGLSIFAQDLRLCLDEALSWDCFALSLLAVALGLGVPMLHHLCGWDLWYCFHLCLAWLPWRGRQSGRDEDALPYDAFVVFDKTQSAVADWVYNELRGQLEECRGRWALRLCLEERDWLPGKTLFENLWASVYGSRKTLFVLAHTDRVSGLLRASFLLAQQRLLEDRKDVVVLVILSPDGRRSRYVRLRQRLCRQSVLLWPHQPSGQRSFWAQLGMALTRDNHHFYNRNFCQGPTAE
Chain of human TLR8 (Q9NR97 27-1041): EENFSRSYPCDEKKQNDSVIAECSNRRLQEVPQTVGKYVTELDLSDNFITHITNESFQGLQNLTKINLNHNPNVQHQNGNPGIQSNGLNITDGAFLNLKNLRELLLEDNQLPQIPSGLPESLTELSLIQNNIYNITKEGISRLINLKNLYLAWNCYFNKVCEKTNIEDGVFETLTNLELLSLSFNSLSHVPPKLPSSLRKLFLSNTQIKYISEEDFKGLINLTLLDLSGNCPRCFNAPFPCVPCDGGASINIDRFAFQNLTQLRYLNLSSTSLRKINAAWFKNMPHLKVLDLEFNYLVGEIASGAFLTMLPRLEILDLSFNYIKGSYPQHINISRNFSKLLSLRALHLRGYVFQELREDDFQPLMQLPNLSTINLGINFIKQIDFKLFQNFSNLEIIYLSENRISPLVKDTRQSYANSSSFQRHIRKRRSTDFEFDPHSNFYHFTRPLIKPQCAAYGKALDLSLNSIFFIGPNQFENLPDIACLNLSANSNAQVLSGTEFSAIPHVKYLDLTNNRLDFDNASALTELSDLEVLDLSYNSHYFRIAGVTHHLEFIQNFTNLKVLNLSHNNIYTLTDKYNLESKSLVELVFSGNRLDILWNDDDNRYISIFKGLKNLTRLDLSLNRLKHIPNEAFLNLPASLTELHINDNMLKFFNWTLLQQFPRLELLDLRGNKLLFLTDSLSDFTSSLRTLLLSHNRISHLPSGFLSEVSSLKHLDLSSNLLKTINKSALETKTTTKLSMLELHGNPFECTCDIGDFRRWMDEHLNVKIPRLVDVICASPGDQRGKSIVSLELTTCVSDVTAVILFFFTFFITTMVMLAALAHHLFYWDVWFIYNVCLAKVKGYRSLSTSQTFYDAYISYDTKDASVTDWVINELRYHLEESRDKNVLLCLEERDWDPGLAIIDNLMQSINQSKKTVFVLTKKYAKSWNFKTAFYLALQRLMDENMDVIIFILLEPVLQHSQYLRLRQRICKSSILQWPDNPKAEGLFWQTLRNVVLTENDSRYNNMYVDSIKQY
Chain of human TLR7 (Q9NYK1 27-1049): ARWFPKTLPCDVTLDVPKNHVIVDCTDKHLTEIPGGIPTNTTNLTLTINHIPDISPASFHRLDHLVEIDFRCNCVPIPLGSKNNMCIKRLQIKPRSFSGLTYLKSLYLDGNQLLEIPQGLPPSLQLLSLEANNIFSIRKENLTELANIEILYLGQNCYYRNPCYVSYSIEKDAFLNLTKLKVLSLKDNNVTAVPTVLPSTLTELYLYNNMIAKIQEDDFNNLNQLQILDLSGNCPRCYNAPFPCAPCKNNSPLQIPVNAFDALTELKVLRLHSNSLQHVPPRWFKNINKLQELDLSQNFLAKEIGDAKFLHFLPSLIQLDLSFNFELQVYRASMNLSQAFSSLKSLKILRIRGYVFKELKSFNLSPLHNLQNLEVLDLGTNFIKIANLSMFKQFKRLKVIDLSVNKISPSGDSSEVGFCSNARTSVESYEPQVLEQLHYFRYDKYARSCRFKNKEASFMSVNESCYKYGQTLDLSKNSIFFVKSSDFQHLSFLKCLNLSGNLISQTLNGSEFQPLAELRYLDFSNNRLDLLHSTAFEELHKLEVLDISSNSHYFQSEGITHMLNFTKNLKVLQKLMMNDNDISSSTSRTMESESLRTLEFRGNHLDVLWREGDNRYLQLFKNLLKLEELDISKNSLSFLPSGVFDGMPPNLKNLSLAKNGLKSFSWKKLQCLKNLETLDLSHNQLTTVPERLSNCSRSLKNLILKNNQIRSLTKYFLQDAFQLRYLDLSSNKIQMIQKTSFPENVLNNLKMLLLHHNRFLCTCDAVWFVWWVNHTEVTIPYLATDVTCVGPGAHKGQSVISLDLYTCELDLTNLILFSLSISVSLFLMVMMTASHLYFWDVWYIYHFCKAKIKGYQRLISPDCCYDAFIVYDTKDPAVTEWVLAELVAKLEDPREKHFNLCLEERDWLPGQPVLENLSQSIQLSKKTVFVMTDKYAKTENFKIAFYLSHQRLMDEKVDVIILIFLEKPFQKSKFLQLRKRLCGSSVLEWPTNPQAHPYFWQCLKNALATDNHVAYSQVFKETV

% inhibition of IFN-alpha (TLR7; [1]): 29% | % inhibition of IL6 (TLR7; [1]): 0% | % inhibition of IFN-alpha (TLR7; [2]): 37% | % inhibition of IL6 (TLR7; [2]): 24% | % inhibition of IFN-alpha (TLR7; [3]): 94% | % inhibition of IL6 (TLR7; [3]): 75% | % inhibition of IFN-alpha (TLR7; [4]): 99% | % inhibition of IL6 (TLR7; [4]): 90% | % inhibition of IFN-alpha (TLR7; [5]): 100% | % inhibition of IL6 (TLR7; [5]): 91%
SMILES: Cc1c(-c2[nH]c3ccc(N4CCN(C(=O)CN(C)C)CC4)nc3c2C(C)C)cn2ncnc2c1C [Example 3, 1-(4-(2-(7,8-dimethyl-[1,2,4]triazolo[1,5-a]pyridin-6-yl)-3-isopropyl-1H-pyrrolo[3,2-b]pyridin-5-yl)piperazin-1-yl)-2-(dimethylamino)ethan-1-one]

% inhibition of IFN-alpha (TLR7; [6]): 0% | % inhibition of IL6 (TLR7; [6]): 0% | % inhibition of IFN-alpha (TLR7; [7]): 33% | % inhibition of IL6 (TLR7; [7]): 23% | % inhibition of IFN-alpha (TLR7; [8]): 74% | % inhibition of IL6 (TLR7; [8]): 75% | % inhibition of IFN-alpha (TLR7; [9]): 93% | % inhibition of IL6 (TLR7; [9]): 76% | % inhibition of IFN-alpha (TLR7; [10]): 99% | % inhibition of IL6 (TLR7; [10]): 95%
SMILES: Cc1c(-c2[nH]c3ccc(C4CCC(NCC5(S(C)(=O)=O)CC5)CC4)nc3c2C(C)C)cn2ncnc2c1C (stereo not drawn) [Example 4, 4-(2-(7,8-dimethyl-[1,2,4]triazolo[1,5-a]pyridin-6-yl)-3-isopropyl-1H-pyrrolo[3,2-b]pyridin-5-yl)-N-((1-(methylsulfonyl)cyclopropyl)methyl)cyclohexan-1-amine]

% inhibition of IFN-alpha (TLR7; [7]): 36% | % inhibition of IL6 (TLR7; [7]): 25% | % inhibition of IFN-alpha (TLR7; [11]): 57% | % inhibition of IL6 (TLR7; [11]): 41% | % inhibition of IFN-alpha (TLR7; [12]): 67% | % inhibition of IL6 (TLR7; [12]): 56% | % inhibition of IFN-alpha (TLR7; [10]): 96% | % inhibition of IL6 (TLR7; [10]): 78% | % inhibition of IFN-alpha (TLR7; [13]): 98% | % inhibition of IL6 (TLR7; [13]): 82%
SMILES: Cc1c(-c2[nH]c3ccc(C4CCC(N5CC6(C5)CS(=O)(=O)C6)CC4)nc3c2C(C)C)cn2ncnc2c1C (stereo not drawn) [Example 438, 6-((1r,4r)-(4-(2-(7,8-dimethyl-[1,2,4]triazolo[1,5-a]pyridin-6-yl)-3-isopropyl-1H-pyrrolo[3,2-b]pyridin-5-yl)cyclohexyl)-2-thia-6-azaspiro[3.3]heptane 2,2-dioxide]

IC50 (human TLR7): 4.3 nM | IC50 (human TLR8): 9.2 nM | IC50 (human TLR9): 9840 nM
SMILES: Cc1c(-c2[nH]c3ccc(N4C[C@H]5C[C@@H]4CN5C4CCOC4)nc3c2C(C)C)cn2ncnc2c1C (stereo partly drawn) [Example 771]
